The structures appear in SMILES notation. ≈ marks a conversion by molar mass, not a printed value. Calls of active or inactive are those of the source. The rule behind the calls is not given here.

One experiment concerns C6. Kind of experiment: Cytotoxicity against rat C6 cells assessed as cell viability at 6 ug/ml after 24 hrs by MTT assay relative to control. The settings on record: C6, 24 h, read-out: Activity. It is filed as functional.
In the case of `O=C(CSc1nnnn1-c1ccccc1)N/N=c1/scc(-c2ccccc2)n1-c1ccccc1`, the viability at 6 µg/mL amounted to 52.1%.
On the same count and under the same terms, as for `O=C(CSc1nnnn1-c1ccccc1)N/N=c1/scc(-c2ccc(Br)cc2)n1-c1ccccc1`, the figure is 61.8%.

Another experiment relates to Aspergillus ochraceus. Kind of experiment: Antimicrobial activity against Aspergillus ochraceus NRRL 3174 after 48 to 72 hrs by microbroth dilution method. It is filed as functional.
Details: not given
Turning to `O=C(CSc1nnnn1-c1ccccc1)N/N=c1/scc(-c2ccccc2)n1-c1ccccc1`, the lowest concentration to inhibit growth (MIC) was 250 µg/mL (≈ 515 µM).
The molecule `O=C(CSc1nnnn1-c1ccccc1)N/N=c1/scc(-c2ccc(Br)cc2)n1-c1ccccc1` had an MIC of 250 µg/mL (≈ 443 µM).

The next experiment deals with Pseudomonas aeruginosa. The experiment can be described thus: Antimicrobial activity against Pseudomonas aeruginosa […] after 18 to 24 hrs by microbroth dilution method. It is filed as functional.
Details: not given
`O=C(CSc1nnnn1-c1ccccc1)N/N=c1/scc(-c2ccccc2)n1-c1ccccc1` displayed an MIC of 250 µg/mL (≈ 515 µM).
On the same count and under the same terms, the result for `O=C(CSc1nnnn1-c1ccccc1)N/N=c1/scc(-c2ccc(Br)cc2)n1-c1ccccc1` reads 250 µg/mL (≈ 443 µM).

In the next experiment the test system is C6. The experiment can be described thus: Cytotoxicity against rat C6 cells assessed as cell viability at 12 ug/ml after 24 hrs by MTT assay relative to control. Type of experiment: functional. The settings on record: C6, 24 h, read-out: Activity.
Regarding `O=C(CSc1nnnn1-c1ccccc1)N/N=c1/scc(-c2ccccc2)n1-c1ccccc1`, the viability at 12 µg/mL amounted to 47.1%.
The same measure, in the same setting: the result for `O=C(CSc1nnnn1-c1ccccc1)N/N=c1/scc(-c2ccc(Br)cc2)n1-c1ccccc1` reads 58.6%.

The next experiment has as its system Aspergillus parasiticus. Kind of experiment: Antimicrobial activity against Aspergillus parasiticus NRRL 465 after 48 to 72 hrs by microbroth dilution method. It is filed as functional.
Details: not given
As for `O=C(CSc1nnnn1-c1ccccc1)N/N=c1/scc(-c2ccccc2)n1-c1ccccc1`, the lowest concentration to inhibit growth (MIC) was 250 µg/mL (≈ 515 µM).
The same measure, in the same setting: the result for `O=C(CSc1nnnn1-c1ccccc1)N/N=c1/scc(-c2ccc(Br)cc2)n1-c1ccccc1` reads 250 µg/mL (≈ 443 µM).

The next experiment deals with Trichoderma harzianum. The experiment can be described thus: Antimicrobial activity against Trichoderma harzianum NRRL 20565 after 48 to 72 hrs by microbroth dilution method. It is filed as functional.
Details: not given
Molecule `O=C(CSc1nnnn1-c1ccccc1)N/N=c1/scc(-c2ccccc2)n1-c1ccccc1` yielded an MIC of 125 µg/mL (≈ 257 µM).
`O=C(CSc1nnnn1-c1ccccc1)N/N=c1/scc(-c2ccc(Br)cc2)n1-c1ccccc1`: it took 125 µg/mL (≈ 221 µM) to inhibit growth (MIC).

For a further experiment, the system named is C6. The experiment can be described thus: Cytotoxicity against rat C6 cells assessed as cell viability at 100 ug/ml after 24 hrs by MTT assay relative to control. It is filed as functional. The settings on record: C6, 24 h, read-out: Activity.
In the case of `O=C(CSc1nnnn1-c1ccccc1)N/N=c1/scc(-c2ccccc2)n1-c1ccccc1`, the viability at 100 µg/mL was found to be 35.8%.
Turning to `O=C(CSc1nnnn1-c1ccccc1)N/N=c1/scc(-c2ccc(Br)cc2)n1-c1ccccc1`, the viability at 100 µg/mL is 24.3%.

For another experiment, the system named is C6. Kind of experiment: Cytotoxicity against rat C6 cells assessed as cell viability at 200 ug/ml after 24 hrs by MTT assay relative to control. It is filed as functional. As to conditions: C6, 24 h, read-out: Activity.
In the case of `O=C(CSc1nnnn1-c1ccccc1)N/N=c1/scc(-c2ccccc2)n1-c1ccccc1`, the viability at 200 µg/mL was found to be 22.6%.
Consider `O=C(CSc1nnnn1-c1ccccc1)N/N=c1/scc(-c2ccc(Br)cc2)n1-c1ccccc1`, for which the viability at 200 µg/mL was 20.4%.

Another experiment concerns C6. The experiment can be described thus: Cytotoxicity against rat C6 cells after 24 hrs by MTT assay. As to conditions: C6, 24 h. It is filed as functional, cell-based.
In the case of `O=C(CSc1nnnn1-c1ccccc1)N/N=c1/scc(-c2ccccc2)n1-c1ccccc1`, half-maximal inhibition (IC50) required 8.3 µg/mL (≈ 17.1 µM).
The same measure, in the same setting: as for `O=C(CSc1nnnn1-c1ccccc1)N/N=c1/scc(-c2ccc(Br)cc2)n1-c1ccccc1`, the figure is 21 µg/mL (≈ 37.2 µM).

In the next experiment the test system is Listeria monocytogenes. Kind of experiment: Antimicrobial activity against Listeria monocytogenes ATCC 7644 after 18 to 24 hrs by microbroth dilution method. It is filed as functional.
Details: not given
On to `O=C(CSc1nnnn1-c1ccccc1)N/N=c1/scc(-c2ccccc2)n1-c1ccccc1`, for which it took 250 µg/mL (≈ 515 µM) to inhibit growth (MIC).
Still for that read-out and setting: as for `O=C(CSc1nnnn1-c1ccccc1)N/N=c1/scc(-c2ccc(Br)cc2)n1-c1ccccc1`, the figure is 250 µg/mL (≈ 443 µM).

A further experiment has as its system Fusarium solani. The experiment can be described thus: Antimicrobial activity against Fusarium solani NRRL 13414 after 48 to 72 hrs by microbroth dilution method. It is filed as functional.
Details: not given
With `O=C(CSc1nnnn1-c1ccccc1)N/N=c1/scc(-c2ccccc2)n1-c1ccccc1`, inhibition of growth (MIC) required 250 µg/mL (≈ 515 µM).
The same measure, in the same setting: the result for `O=C(CSc1nnnn1-c1ccccc1)N/N=c1/scc(-c2ccc(Br)cc2)n1-c1ccccc1` reads 250 µg/mL (≈ 443 µM).

For the next experiment, the system named is C6. Kind of experiment: Cytotoxicity against rat C6 cells assessed as cell viability at 50 ug/ml after 24 hrs by MTT assay relative to control. It is filed as functional. As to conditions: C6, 24 h, read-out: Activity.
For the molecule `O=C(CSc1nnnn1-c1ccccc1)N/N=c1/scc(-c2ccccc2)n1-c1ccccc1`, the viability at 50 µg/mL is 36.7%.
Same read-out and setting: the result for `O=C(CSc1nnnn1-c1ccccc1)N/N=c1/scc(-c2ccc(Br)cc2)n1-c1ccccc1` reads 32%.

Another experiment deals with Penicillium chrysogenum. The experiment can be described thus: Antimicrobial activity against Penicillium chrysogenum NRRL 1951 after 48 to 72 hrs by microbroth dilution method. It is filed as functional.
Details: not given
Molecule `O=C(CSc1nnnn1-c1ccccc1)N/N=c1/scc(-c2ccccc2)n1-c1ccccc1` registered an MIC of 250 µg/mL (≈ 515 µM).
Still for that read-out and setting: the result for `O=C(CSc1nnnn1-c1ccccc1)N/N=c1/scc(-c2ccc(Br)cc2)n1-c1ccccc1` reads 250 µg/mL (≈ 443 µM).

In the next experiment the test system is C6. The experiment can be described thus: Inhibition of DNA synthesis in rat C6 cells assessed as BrdU incorporation after 24 hrs by ELISA. It is filed as functional, cell-based.
Details: not given
On to `O=C(CSc1nnnn1-c1ccccc1)N/N=c1/scc(-c2ccccc2)n1-c1ccccc1`, for which the inhibition result is “Dose-dependent effect”.
Still for that read-out and setting: as for `O=C(CSc1nnnn1-c1ccccc1)N/N=c1/scc(-c2ccc(Br)cc2)n1-c1ccccc1`, the entry is “Dose-dependent effect”.

The next experiment relates to Escherichia coli. The experiment can be described thus: Antimicrobial activity against Escherichia coli ATCC 25922 after 18 to 24 hrs by microbroth dilution method. Type of experiment: functional.
Details: not given
The molecule `O=C(CSc1nnnn1-c1ccccc1)N/N=c1/scc(-c2ccccc2)n1-c1ccccc1` came in with an MIC of 250 µg/mL (≈ 515 µM).
For the molecule `O=C(CSc1nnnn1-c1ccccc1)N/N=c1/scc(-c2ccc(Br)cc2)n1-c1ccccc1`, 250 µg/mL (≈ 443 µM) was the least that counted as inhibitory (MIC).

In a further experiment the test system is C6. Kind of experiment: Cytotoxicity against rat C6 cells assessed as cell viability at 25 ug/ml after 24 hrs by MTT assay relative to control. Type of experiment: functional. As to conditions: C6, 24 h, read-out: Activity.
For the molecule `O=C(CSc1nnnn1-c1ccccc1)N/N=c1/scc(-c2ccccc2)n1-c1ccccc1`, the viability at 25 µg/mL was found to be 42.5%.
Still for that read-out and setting: as for `O=C(CSc1nnnn1-c1ccccc1)N/N=c1/scc(-c2ccc(Br)cc2)n1-c1ccccc1`, the figure is 47.9%.

The subject of another experiment is Candida albicans. Kind of experiment: Antimicrobial activity against Candida albicans ATCC 22019 after 18 to 24 hrs by microbroth dilution method. It is filed as functional.
Details: not given
`O=C(CSc1nnnn1-c1ccccc1)N/N=c1/scc(-c2ccccc2)n1-c1ccccc1` showed an MIC of 250 µg/mL (≈ 515 µM).
`O=C(CSc1nnnn1-c1ccccc1)N/N=c1/scc(-c2ccc(Br)cc2)n1-c1ccccc1` showed an MIC of 125 µg/mL (≈ 221 µM).

The subject of the next experiment is Bacillus subtilis. The experiment can be described thus: Antimicrobial activity against Bacillus subtilis NRS-744 after 18 to 24 hrs by microbroth dilution method. It is filed as functional.
Details: not given
`O=C(CSc1nnnn1-c1ccccc1)N/N=c1/scc(-c2ccccc2)n1-c1ccccc1`: the MIC was found to be 500 µg/mL (≈ 1030 µM).
Same read-out and setting: the result for `O=C(CSc1nnnn1-c1ccccc1)N/N=c1/scc(-c2ccc(Br)cc2)n1-c1ccccc1` reads 250 µg/mL (≈ 443 µM).

A further experiment has as its system Fusarium verticillioides. Kind of experiment: Antimicrobial activity against Fusarium moniliforme NRRL 1866 after 48 to 72 hrs by microbroth dilution method. Type of experiment: functional.
Details: not given
As for `O=C(CSc1nnnn1-c1ccccc1)N/N=c1/scc(-c2ccccc2)n1-c1ccccc1`, the MIC turned out to be 250 µg/mL (≈ 515 µM).
Still for that read-out and setting: as for `O=C(CSc1nnnn1-c1ccccc1)N/N=c1/scc(-c2ccc(Br)cc2)n1-c1ccccc1`, the figure is 250 µg/mL (≈ 443 µM).

The next experiment has as its system C6. The experiment can be described thus: Inhibition of DNA synthesis in rat C6 cells assessed as BrdU incorporation at IC50 after 24 hrs by ELISA. Type of experiment: functional, cell-based.
Details: not given
As to `O=C(CSc1nnnn1-c1ccccc1)N/N=c1/scc(-c2ccccc2)n1-c1ccccc1`, the inhibition result was “Active”.
Regarding `O=C(CSc1nnnn1-c1ccccc1)N/N=c1/scc(-c2ccc(Br)cc2)n1-c1ccccc1`, the inhibition result is “Active”.

For the next experiment, the system named is Staphylococcus aureus. Kind of experiment: Antimicrobial activity against Staphylococcus aureus NRRL B-767 after 18 to 24 hrs by microbroth dilution method. Type of experiment: functional.
Details: not given
The molecule `O=C(CSc1nnnn1-c1ccccc1)N/N=c1/scc(-c2ccccc2)n1-c1ccccc1` yielded an MIC of 250 µg/mL (≈ 515 µM).
Same read-out and setting: the result for `O=C(CSc1nnnn1-c1ccccc1)N/N=c1/scc(-c2ccc(Br)cc2)n1-c1ccccc1` reads 250 µg/mL (≈ 443 µM).

For the next experiment, the system named is NIH3T3. Kind of experiment: Cytotoxicity against mouse NIH/3T3 cells after 24 hrs by MTT assay. Type of experiment: cell-based. As to conditions: NIH3T3, 24 h.
On to `O=C(CSc1nnnn1-c1ccccc1)N/N=c1/scc(-c2ccccc2)n1-c1ccccc1`, for which the midpoint of inhibition, the IC50, lay at 417 µg/mL (≈ 858 µM).
Molecule `O=C(CSc1nnnn1-c1ccccc1)N/N=c1/scc(-c2ccc(Br)cc2)n1-c1ccccc1` showed an IC50 of 433 µg/mL (≈ 768 µM).

A further experiment deals with Fusarium culmorum. The experiment can be described thus: Antimicrobial activity against wild type Fusarium culmorum after 48 to 72 hrs by microbroth dilution method. Type of experiment: functional.
Details: not given
`O=C(CSc1nnnn1-c1ccccc1)N/N=c1/scc(-c2ccccc2)n1-c1ccccc1` came in with an MIC of 125 µg/mL (≈ 257 µM).
Same read-out and setting: as for `O=C(CSc1nnnn1-c1ccccc1)N/N=c1/scc(-c2ccc(Br)cc2)n1-c1ccccc1`, the figure is 250 µg/mL (≈ 443 µM).

In another experiment the test system is Micrococcus luteus. Kind of experiment: Antimicrobial activity against Micrococcus luteus NRLL B-4375 after 18 to 24 hrs by microbroth dilution method. Type of experiment: functional.
Details: not given
The molecule `O=C(CSc1nnnn1-c1ccccc1)N/N=c1/scc(-c2ccccc2)n1-c1ccccc1` showed an MIC of 250 µg/mL (≈ 515 µM).
The same measure, in the same setting: as for `O=C(CSc1nnnn1-c1ccccc1)N/N=c1/scc(-c2ccc(Br)cc2)n1-c1ccccc1`, the figure is 250 µg/mL (≈ 443 µM).
